Reference: PubChem BioAssay AID192 (DTP/NCI, 2004)
Several values for one entry are separate records, joined by “and”; a condition that tells them apart may be missing. Identical values can stand only once. Toxic doses and inconclusive results are not listed.

System: BDF1 mice, B16 melanoma ip, median survival T/C
Assay: NCI In Vivo Anticancer Drug Screen. Data for tumor model B16 Melanoma (intraperitoneal) in B6D2F1 (BDF1) mice
Settings: endpoint: median survival time, higher = longer survival
In short: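 Antitumor activity is assessed in mice bearing a transplanted tumor, with survival or tumor size compared against vehicle-dosed controls and expressed as T/C.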

[1] = dose: 3.12 mg/kg/injection, schedule: Q01DX009 (ip), vehicle: Klucel (hydroxypropylcellulose) (HPC)
[2] = dose: 6.25 mg/kg/injection, schedule: Q01DX009 (ip), vehicle: Klucel (hydroxypropylcellulose) (HPC)
[3] = dose: 12.5 mg/kg/injection, schedule: Q01DX009 (ip), vehicle: Klucel (hydroxypropylcellulose) (HPC)
[4] = dose: 25.0 mg/kg/injection, schedule: Q01DX009 (ip), vehicle: Klucel (hydroxypropylcellulose) (HPC)
[5] = dose: 50.0 mg/kg/injection, schedule: Q01DX009 (ip), vehicle: Klucel (hydroxypropylcellulose) (HPC)
[6] = dose: 50.0 mg/kg/injection, schedule: Q01DX009 (ip), vehicle: saline with Tween-80
[7] = dose: 100.0 mg/kg/injection, schedule: Q01DX009 (ip), vehicle: saline
[8] = dose: 100.0 mg/kg/injection, schedule: Q04DX003 (ip), vehicle: saline with Tween-80
[9] = dose: 200.0 mg/kg/injection, schedule: Q04DX003 (ip), vehicle: saline with Tween-80
[10] = dose: 400.0 mg/kg/injection, schedule: Q04DX003 (ip), vehicle: saline with Tween-80
[11] = dose: 100.0 mg/kg/injection, schedule: Q01DX009 (ip), vehicle: saline with Tween-80
[12] = dose: 200.0 mg/kg/injection, schedule: Q01DX009 (ip), vehicle: saline with Tween-80
[13] = dose: 400.0 mg/kg/injection, schedule: Q01DX009 (ip), vehicle: saline with Tween-80
[14] = dose: 0.75 mg/kg/injection, schedule: Q01DX009 (ip), vehicle: saline
[15] = dose: 0.09 mg/kg/injection, schedule: Q01DX009 (ip), vehicle: Klucel (hydroxypropylcellulose) (HPC)
[16] = dose: 0.19 mg/kg/injection, schedule: Q01DX009 (ip), vehicle: Klucel (hydroxypropylcellulose) (HPC)
[17] = dose: 0.39 mg/kg/injection, schedule: Q01DX009 (ip), vehicle: Klucel (hydroxypropylcellulose) (HPC)
[18] = dose: 0.78 mg/kg/injection, schedule: Q01DX009 (ip), vehicle: Klucel (hydroxypropylcellulose) (HPC)
[19] = dose: 1.56 mg/kg/injection, schedule: Q01DX009 (ip), vehicle: Klucel (hydroxypropylcellulose) (HPC)
[20] = dose: 100.0 mg/kg/injection, schedule: Q01DX009 (ip), vehicle: Klucel (hydroxypropylcellulose) (HPC)
[21] = dose: 200.0 mg/kg/injection, schedule: Q01DX009 (ip), vehicle: Klucel (hydroxypropylcellulose) (HPC)

For NC(N)=NCCCOc1ccccc1, the T/C [1] was 102 % of control, the T/C [2] was 108 % of control and the T/C [3] was 113 % of control. The T/C [4] was 100 % of control and the T/C [5] was 100 % of control.
For Cc1c(Cl)cccc1NC(=O)COc1ccc(Cl)cc1, the T/C (dose: 12.5 mg/kg/injection, schedule: Q01DX009 (ip), vehicle: saline with Tween-80) was 96 % of control, the T/C (dose: 25.0 mg/kg/injection, schedule: Q01DX009 (ip), vehicle: saline with Tween-80) was 90 % of control and the T/C [6] was 88 % of control.
For COc1cc(C=Nc2ccc(-c3nc(Cc4ccccc4)sc3C)cc2)ccc1N(CCCl)CCCl, the T/C [3] was 175 % of control and 186 % of control and the T/C [4] was 191 % of control.
In the case of COc1ccc2c(c1)C(=O)CC=C(C(=O)O)N2, the T/C [7] was 100 % of control, the T/C [8] was 88 % of control and the T/C (dose: 200.0 mg/kg/injection, schedule: Q01DX009 (ip), vehicle: saline) was 96 % of control. For the same compound, the T/C [9] was 93 % of control, the T/C (dose: 400.0 mg/kg/injection, schedule: Q01DX009 (ip), vehicle: saline) was 98 % of control and the T/C [10] was 95 % of control.
In the case of CN(C)CCCNc1cc(O)c2c(c1O)C(=O)c1ccccc1C2=O, the T/C (dose: 50.0 mg/kg/injection, schedule: Q01DX009 (ip), vehicle: water) was 116 % of control and the T/C (dose: 100.0 mg/kg/injection, schedule: Q01DX009 (ip), vehicle: water) was 107 % of control.
In the case of O=C(O)/C=C\C(=O)Nc1ccccn1, the T/C (dose: 5.0 mg/kg/injection, schedule: Q01DX009 (ip), vehicle: saline) was 100 % of control, the T/C (dose: 10.0 mg/kg/injection, schedule: Q01DX009 (ip), vehicle: saline) was 100 % of control and the T/C (dose: 30.0 mg/kg/injection, schedule: Q01DX009 (ip), vehicle: saline) was 112 % of control. For the same compound, the T/C (dose: 60.0 mg/kg/injection, schedule: Q01DX009 (ip), vehicle: saline) was 109 % of control.
In the case of COC(=O)C(C)CC(C)(C=O)OC (stereo not drawn), the T/C [11] was 97 % of control, the T/C [12] was 100 % of control and the T/C [13] was 90 % of control.
With COc1nc(NC(C)C)nc(NC(C)C)n1 the T/C [6] was 102 % of control, the T/C (dose: 66.0 mg/kg/injection, schedule: Q01DX009 (ip), vehicle: saline with Tween-80) was 93 % of control and the T/C [11] was 86 % of control. For the same compound, the T/C (dose: 150.0 mg/kg/injection, schedule: Q01DX009 (ip), vehicle: saline with Tween-80) was 97 % of control and the T/C [12] was 105 % of control.
O=C1NC2(CCCCC2)C(=O)N1CCN(CCCl)CCCl was tested, and the T/C [14] was 105 % of control and 107 % of control, the T/C (dose: 0.78 mg/kg/injection, schedule: Q01DX009 (ip), vehicle: saline) was 95 % of control and 109 % of control and 263 % of control and the T/C (dose: 3.0 mg/kg/injection, schedule: Q01DX009 (ip), vehicle: saline) was 107 % of control. For the same compound, the T/C (dose: 6.0 mg/kg/injection, schedule: Q01DX009 (ip), vehicle: saline with Tween-80) was 168 % of control and 191 % of control and the T/C (dose: 6.25 mg/kg/injection, schedule: Q01DX009 (ip), vehicle: saline) was 152 % of control and 176 % of control.
For CCC(C)C(N)C(=O)NC(CC(N)=O)C(=O)NC(CC(C)C)C(=O)NC(CCCCN)C(=O)NC(C)C(=O)NC(CC(C)C)C(=O)NC(C)C(=O)NC(C)C(=O)NC(CC(C)C)C(=O)NC(C)C(=O)NC(CCCCN)C(=O)NC(CCCCN)C(=O)NC(C(=O)NC(CC(C)C)C(N)=O)C(C)CC (stereo not drawn), the T/C (dose: 1.0 mg/kg/injection, schedule: Q01DX009 (ip), vehicle: Klucel (hydroxypropylcellulose) (HPC)) was 97 % of control, the T/C (dose: 2.0 mg/kg/injection, schedule: Q01DX009 (ip), vehicle: Klucel (hydroxypropylcellulose) (HPC)) was 97 % of control and the T/C (dose: 4.0 mg/kg/injection, schedule: Q01DX009 (ip), vehicle: Klucel (hydroxypropylcellulose) (HPC)) was 91 % of control.
NC(CNC(=O)CBr)C(=O)O (stereo not drawn) was tested, and the T/C (dose: 6.25 mg/kg/injection, schedule: Q01DX009 (ip), vehicle: water) was 109 % of control, the T/C (dose: 12.5 mg/kg/injection, schedule: Q01DX009 (ip), vehicle: water) was 104 % of control and the T/C (dose: 25.0 mg/kg/injection, schedule: Q01DX009 (ip), vehicle: water) was 122 % of control.
For Cc1ccc(C(=O)[O][Hg][CH2]C2COC([CH2][Hg][O]C(=O)c3ccc(C)cc3)CO2)cc1 (stereo not drawn), the T/C [15] was 92 % of control, the T/C [16] was 87 % of control and the T/C [17] was 99 % of control. For the same compound, the T/C [18] was 100 % of control, the T/C [19] was 100 % of control and the T/C [1] was 94 % of control and 106 % of control. For the same compound, the T/C [2] was 92 % of control and 107 % of control, the T/C [3] was 94 % of control and 99 % of control and the T/C [4] was 94 % of control and 96 % of control. For the same compound, the T/C [5] was 89 % of control and 94 % of control.
With Nc1nc(N)c2cc(CNc3ccc(C(=O)NC(CC(=O)O)CC(=O)O)cc3)ccc2n1 the T/C (dose: 0.04 mg/kg/injection, schedule: Q01DX009 (ip), vehicle: Klucel (hydroxypropylcellulose) (HPC)) was 109 % of control, the T/C [15] was 95 % of control and the T/C [16] was 104 % of control. The T/C [17] was 95 % of control, the T/C [18] was 95 % of control and 112 % of control and the T/C [19] was 112 % of control. For the same compound, the T/C [1] was 93 % of control, the T/C [2] was 93 % of control and the T/C [3] was 90 % of control and 101 % of control and 102 % of control. For the same compound, the T/C [4] was 98 % of control and 124 % of control and the T/C [5] was 99 % of control.
In the case of O=C1C=CN(C2OC(CO)C(O)C2O)C(=O)C1 (stereo not drawn), the T/C (dose: 12.5 mg/kg/injection, schedule: Q01DX009 (ip), vehicle: saline) was 104 % of control, the T/C (dose: 25.0 mg/kg/injection, schedule: Q01DX009 (ip), vehicle: saline) was 104 % of control and the T/C (dose: 50.0 mg/kg/injection, schedule: Q01DX009 (ip), vehicle: saline sonified) was 100 % of control. The T/C (dose: 50.0 mg/kg/injection, schedule: Q01DX009 (ip), vehicle: saline) was 119 % of control, the T/C (dose: 100.0 mg/kg/injection, schedule: Q01DX009 (ip), vehicle: saline sonified) was 86 % of control and the T/C [7] was 118 % of control. The T/C (dose: 200.0 mg/kg/injection, schedule: Q01DX009 (ip), vehicle: saline sonified) was 89 % of control.
In the case of CCCCNC(=O)Nc1ccccc1Cl, the T/C [11] was 100 % of control, the T/C [12] was 98 % of control and the T/C [13] was 98 % of control.
With CCCCCCCCCC1(C)OCC(COC(N)=O)O1 (stereo not drawn) the T/C [4] was 90 % of control, the T/C [5] was 90 % of control and the T/C [20] was 92 % of control. The T/C [21] was 95 % of control and the T/C (dose: 400.0 mg/kg/injection, schedule: Q01DX009 (ip), vehicle: Klucel (hydroxypropylcellulose) (HPC)) was 95 % of control.
In the case of COC(=O)CCC(=O)N1CCOCC1, the T/C [11] was 95 % of control, the T/C [8] was 100 % of control and the T/C [12] was 93 % of control. For the same compound, the T/C [9] was 102 % of control, the T/C [13] was 97 % of control and the T/C [10] was 102 % of control.
With NC(=O)c1ccc(N)nc1 the T/C (dose: 0.09 mg/kg/injection, schedule: Q01DX009 (ip), vehicle: saline) was 100 % of control, the T/C (dose: 0.18 mg/kg/injection, schedule: Q01DX009 (ip), vehicle: saline) was 86 % of control and 107 % of control and the T/C (dose: 0.37 mg/kg/injection, schedule: Q01DX009 (ip), vehicle: saline) was 113 % of control and 114 % of control. For the same compound, the T/C [14] was 102 % of control, the T/C (dose: 1.5 mg/kg/injection, schedule: Q01DX009 (ip), vehicle: saline) was 112 % of control and 115 % of control and the T/C (dose: 2.0 mg/kg/injection, schedule: Q01DX009 (ip), vehicle: saline) was 100 % of control. For the same compound, the T/C (dose: 3.12 mg/kg/injection, schedule: Q04DX003 (ip), vehicle: saline) was 111 % of control and the T/C (dose: 6.25 mg/kg/injection, schedule: Q04DX003 (ip), vehicle: saline) was 107 % of control.
In the case of Cc1ccc(S(=O)(=O)NC(=O)C2C(=O)CC3(CCCCC3)CC2=O)cc1, the T/C [4] was 97 % of control, the T/C [5] was 100 % of control and 111 % of control and the T/C [20] was 96 % of control and 113 % of control. The T/C [21] was 94 % of control.
For [N-]=C(CC(=O)c1ccccc1)c1ccccc1.[N-]=C(CC(=O)c1ccccc1)c1ccccc1.[Ni+2], the T/C (dose: 3.0 mg/kg/injection, schedule: Q04DX003 (ip), vehicle: Klucel (hydroxypropylcellulose) (HPC)) was 86 % of control, the T/C (dose: 6.0 mg/kg/injection, schedule: Q04DX003 (ip), vehicle: Klucel (hydroxypropylcellulose) (HPC)) was 93 % of control and the T/C (dose: 12.0 mg/kg/injection, schedule: Q04DX003 (ip), vehicle: Klucel (hydroxypropylcellulose) (HPC)) was 88 % of control.
